Consider nine compounds from patent US9174995B2, “Pyrrolotriazinone derivatives” (Merck Patent GmbH, priority 2012, dated 2015).

For one assay, the system named is Tankyrases. As to the kind of experiment: Cellular inhibition of Tankyrase: increase of Axin2 level in DLD1 cells (Luminex). The assay is classed as cell-based. Particulars: 24 hours, read-out: EC50 tankyrase ½ (cell assay). The method, then: Measurement of Cellular Inhibition of Tankyrase
Since Tankyrases have been described to modulate cellular level of Axin2 (Huang et al., 2009; Nature) the increase of Axin2 level is used as readout for determination of cellular inhibition of Tankyrases in a Luminex based assay.
Cells of the colon carcinoma cell line DLD1 are plated in 96 well plates with 1.5×10^4 cells per well. Next day, cells are treated with a serial dilution of test compound in seven steps as triplicates with a final DMSO concentration of 0.3%. After 24 hours, cells are lysed in lysis buffer (20 mM Tris/HCl pH 8.0, 150 mM NaCl, 1% NP40, 10% Glycerol) and lysates are cleared by centrifugation through a 96 well filter plate (0.65 μm). Axin2 protein is isolated from cell lysates by incubation with a monoclonal anti-Axin2 antibody (R&D Systems #MAB6078) that is bound to fluorescent carboxybeads. Then, bound Axin2 is specifically detected with a polyclonal anti-Axin2 antibody (Cell Signaling #2151) and an appropriate PE-fluorescent secondary antibody. The amount of isolated Axin2 protein is determined in a Luminex^200 machine (Luminex Corporation) according to the manufacturer's instruction by counting 100 events per well. Inhibition of Tankyrase by test compounds results in higher levels of Axin2 which directly correlates with an increase of detectable fluorescence. As controls cells are treated with solvent alone (neutral control) and with a Tankyrase reference inhibitor IWR-2 (3E-06 M) which refers as control for maximum increase of Axin2. For analysis, the obtained data are normalized against the untreated solvent control and fitted for determination of the EC50 values using the Assay Explorer software (Accelrys).

Assay [1] concerns the target T1, GST-tagged Tnks-1 (1023-1327 aa) (Homo sapiens, UniProt O95271).
T1 construct: GST-tagged Tnks-1 (1023-1327 aa, prepared in-house); made in house
As to the kind of experiment: TNKS1 activity ELISA (autoparsylation assay). The assay is classed as biochemical. The method, then:
(§1) Description of the TNKS1 and TNKS2 ELISA Assay
(§2) Biochemical Activity Testing of TNKS 1 and 2: Activity ELISA (Autoparsylation Assay)
(§3) For analysis of autoparsylation activity of TNKS 1 and 2 an activity ELISA is performed: In the first step GST tagged TNKS is captured on a Glutathione coated plate. Then the activity assay with biotinylated NAD is performed in the absence/presence of the compounds. During the enzymatic reaction GST tagged TNKS transfers biotinylated ADP-ribose to itself from biotinylated NAD as co-substrate. For the detection streptavidin-HRP conjugate is added that binds to the biotinylated TNKS and is thereby captured to the plates. The amount of biotinylated resp. autoparsylated TNKS is detected with a luminescence substrate for HRP. The level of the luminescence signal correlats directly with the amount of autoparsylated TNKS and therefore with activity of TNKS.
(§4) The activity ELISA is performed in 384 well Glutathione coated microtiter plates (Express capture Glutathione coated plate, Biocat, Heidelberg, Germany). The plates are pre-equilibrated with PBS. Then the plates are incubated with 50 μl 20 ng/well GST-tagged Tnks-1 (1023-1327 aa, prepared in-house), respectively GST-tagged Tnks-2 (873-1166 aa, prepared in-house) in assay buffer (50 mM HEPES, 4 mM Mg-chloride, 0.05% Pluronic F-68, 2 mM DTT, pH 7.7) overnight at 4° C. The plates are washed 3 times with PBS-Tween-20. The wells are blocked by incubation at room temperature for 20 minutes with 50 μl blocking buffer (PBS, 0.05% Tween-20, 0.5% BSA). Afterwards the plates are washed 3 times with PBS-Tween-20. The enzymatic reaction is performed in 50 μl reaction solution (50 mM HEPES, 4 mM Mg-chloride, 0.05% Pluronic F-68, 1.4 mM DTT, 0.5% DMSO, pH 7.7) with 10 μM bio-NAD (Biolog, Life science Inst., Bremen, Germany) as co-substrate in the absence or presence of the test compound (10 dilution concentrations) for 1 hour at 30° C. The reaction is stopped by 3 times washing with PBS-Tween-20. For the detection 50 μl of 20 ng/μl Streptavidin, HRP conjugate (MoBiTec, Göttingen, Germany) in PBS/0.05%Tween-20/0.01%BSA are added and the plates are incubated for 30 minutes at room temperature. After three times washing with PBS-Tween-20 50 μl of SuperSignal ELISA Femto Maximum sensitivity substrate solution (ThermoFisherScientific (Pierce), Bonn, Germany) are added. Following a 1 minute incubation at room temperature luminescence signals are measured with an Envision multimode reader (Perkin Elmer LAS Germany GmbH) at 700 nm. The full value used is the inhibitor-free reaction. The pharmacological zero value used is XAV-939 (Tocris) in a final concentration of 5 μM. The inhibitory values (IC50) are determined using either the program Symyx Assay Explorer® or Condosseo® from GeneData.
(An ELISA detects its analyte on a solid surface through an enzyme-linked reagent.)

Assay [2] deals with T2, GST-tagged Tnks-2 (873-1166 aa) (Homo sapiens, UniProt Q9H2K2).
T2 construct: GST-tagged Tnks-2 (873-1166 aa, prepared in-house); made in house
As to the kind of experiment: TNKS2 activity ELISA (autoparsylation assay). The class given is biochemical. The method, then: as §1, §2, §3, §4

Each structure is given as a SMILES string.

The term EC50 denotes the concentration at which the effect is half-maximal. In general, IC50 refers to the point on the concentration scale where inhibition reaches its midpoint.

T1 sequence (O95271 1023-1327): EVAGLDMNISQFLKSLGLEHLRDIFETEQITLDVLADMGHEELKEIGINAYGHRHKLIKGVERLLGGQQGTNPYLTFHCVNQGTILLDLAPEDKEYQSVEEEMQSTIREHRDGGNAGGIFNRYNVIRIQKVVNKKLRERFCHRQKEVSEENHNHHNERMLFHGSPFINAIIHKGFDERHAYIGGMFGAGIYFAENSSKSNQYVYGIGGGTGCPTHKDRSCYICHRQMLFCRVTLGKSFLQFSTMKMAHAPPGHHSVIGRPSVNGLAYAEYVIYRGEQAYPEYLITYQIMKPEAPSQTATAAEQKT
T2 sequence (Q9H2K2 873-1166): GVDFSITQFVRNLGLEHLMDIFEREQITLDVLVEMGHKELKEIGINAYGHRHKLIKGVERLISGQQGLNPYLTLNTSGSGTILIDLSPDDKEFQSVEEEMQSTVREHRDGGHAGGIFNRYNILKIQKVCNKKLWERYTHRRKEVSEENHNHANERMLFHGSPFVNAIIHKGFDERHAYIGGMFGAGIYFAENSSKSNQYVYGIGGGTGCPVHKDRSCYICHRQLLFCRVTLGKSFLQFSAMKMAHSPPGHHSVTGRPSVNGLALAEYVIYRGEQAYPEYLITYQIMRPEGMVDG

For `Cc1cc2c(=O)[nH]c(-c3ccc(-c4cnn(C)c4)cc3)nn2c1` [Compound A13, 6-methyl-2-[4-(1-methylpyrazol-4-yl)phenyl]-3H-pyrrolo-[2,1-f][1,2,4]triazin-4-one], the 50% effective concentration (EC50) in the assay on Tankyrases was 300 to 3000 nM. Moreover, the IC50 in assay [1] and in assay [2] was less than 300 nM in each case.

Consider `CC(C)(OCCO)c1ccc(-c2nn3cccc3c(=O)[nH]2)cc1` [Compound A15, 2-{4-[1-(2-hydroxy-ethoxy)-1-methyl-ethyl]-phenyl}-3H-pyrrolo[2,1-f][1,2,4]triazin-4-one], for which, in the assay with Tankyrases, the EC50 was in the range of 300 to 3000 nM. The half-maximal inhibitory concentration (IC50) in assay [1] and in assay [2] was less than 300 nM throughout.

Turning to `CC(C)(O)c1ccc(-c2nn3cc(F)cc3c(=O)[nH]2)cc1` [Compound A12, 6-fluoro-2-[4-(1-hydroxy-1-methyl-ethyl)phenyl]-3H-pyrrolo[2,1-f][1,2,4]triazin-4-one], the EC50 in the assay on Tankyrases was in the range of 300 to 3000 nM. The IC50 in assay [1] and in assay [2] was less than 300 nM throughout.

With `Cc1cc2c(=O)[nH]c(-c3ccc(C(C)(C)O)cc3)nn2c1` [Compound A11, 2-[4-(1-hydroxy-1-methyl-ethyl)phenyl]-6-methyl-3H-pyrrolo[2,1-f][1,2,4]triazin-4-one], in the assay with Tankyrases, the EC50 was 300 to 3000 nM. For the same compound, the half-inhibitory concentration (IC50) in assay [1] and in assay [2] was less than 300 nM throughout.

Consider `CC(C)(O)c1ccc(-c2nn3cccc3c(=O)[nH]2)cc1` [Compound A5, 2-[4-(1-hydroxy-1-methyl-ethyl)-phenyl]-3H-pyrrolo[2,1-f][1,2,4]triazin-4-one], for which the half-maximal effective concentration (EC50) with Tankyrases was 300 to 3000 nM. Moreover, the 50% inhibitory concentration (IC50) in assay [1] and in assay [2] was less than 300 nM throughout.

Regarding `Cn1cc(-c2ccc(-c3nn4cccc4c(=O)[nH]3)cc2)cn1` [Compound A7, 2-[4-(1-methyl-1H-pyrazol-4-yl)-phenyl]-3H-pyrrolo[2,1-f][1,2,4]triazin-4-one], the EC50 in the assay with Tankyrases was 300 to 3000 nM. Besides, the IC50 in assay [1] and in assay [2] was less than 300 nM in each case.

For `O=c1[nH]c(-c2ccc(C3(O)CCCC3)cc2)nn2cccc12` [Compound A21, 2-[4-(1-hydroxy-cyclopentyl)-phenyl]-3H-pyrrolo[2,1-f][1,2,4]-triazin-4-one], in the assay with Tankyrases, the concentration for a half-maximal effect (EC50) was 300 to 3000 nM. The 50% inhibitory concentration (IC50) in assay [1] and in assay [2] was less than 300 nM throughout.

Take `CC(C)(O)c1ccc(-c2nn3cc(Cl)cc3c(=O)[nH]2)cc1` [Compound A18, 6-chloro-2-[4-(1-hydroxy-1-methyl-ethyl)-phenyl]-3H-pyrrolo[2,1-f][1,2,4]triazin-4-one]: the 50% effective concentration (EC50) in the assay on Tankyrases lay within 300 to 3000 nM. Also, the IC50 in assay [1] and in assay [2] was less than 300 nM each time.

Take `CCC(O)(CC)c1ccc(-c2nn3cccc3c(=O)[nH]2)cc1` [Compound A14, 2-[4-(1-ethyl-1-hydroxy-propyl)-phenyl]-3H-pyrrolo[2,1-f][1,2,4]triazin-4-one]: the EC50 with Tankyrases is less than 300 nM. Further, the half-inhibitory concentration (IC50) in assay [1] and in assay [2] was less than 300 nM in each case.
